From ChEMBL document CHEMBL1132807, “Synthesis of a heterocyclic aza-enediyne and its DNA-cleavage properties” (Bioorg Med Chem Lett, 2000)

Assay: Concentration required for cleaving the supercoiled DNA at pH 8
Type: functional

**Q.** Which Concentration does the source give for C[n+]1c(C#Cc2ccccc2)n(CC#Cc2ccccc2)c2ccccc21 here?
**A.** Its Concentration is 100 µM.
